Consider 41 compounds from the supplement of paper PMC11997997.

In test [1] the test system is murine bone marrow-derived macrophages. Kind of test: area under cytotoxicity dose-response curve (AUC (% cytotoxicity x dose, relative)); higher = more cytotoxic. The note with it: duration: 6 days; dose range: 0.13-80 uM, 8 points. The procedure, abridged: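 An 8-point, 2.5-fold dilution series (final 80–0.13 μM) was applied for 6 days at 37 °C in 5% CO2 to primary murine bone marrow-derived macrophages plated in opaque 384-well plates. Promega's CellTiter-Glo luminescence assay measured viability, and percent cytotoxicity was normalised against vehicle and positive control wells. The area under the dose–response curve, worked out in GraphPad Prism version 10, is the reported cytotoxicity measure.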

Test [2] deals with Mycobacterium tuberculosis CDC1551 (intracellular, in murine BMDM). Nature of the test: area under intracellular growth-inhibition dose-response curve (AUC (% inhibition x dose, relative)); higher = more potent. The note with it: duration: 6 days; dose range: 0.13-80 uM, 8 points. Summed up: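 Each value is an area under the growth-inhibition dose–response curve, calculated with GraphPad Prism. Infected primary murine bone marrow-derived macrophages, carrying luciferase-expressing M. tuberculosis CDC1551 at multiplicity of infection 1, were treated for 6 days with an 8-dose, 2.5-fold series (final 80–0.13 μM) in 384-well opaque plates. Readout was by Bright-Glo luciferin assay, normalised to a reference drug control and the lowest-concentration wells.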

For `O=C(Nc1ccc(OC(F)(F)F)cc1)c1ccc2c(c1)no[n+]2[O-]`, in test [1], the “area under cytotoxicity dose-response curve” value is less than 0. Besides, the “area under intracellular growth-inhibition dose-response curve” value in test [2] is 230.
Consider `CCCCCc1ccc(OCCCC[n+]2ccccc2)c(CCCCC)c1.[Cl-]`, for which the “area under cytotoxicity dose-response curve” value in test [1] came out at 79.3. In addition, the “area under intracellular growth-inhibition dose-response curve” value in test [2] is 16.
Consider `Cc1ccc(C)c(NC(=N)Nc2nc(C)cc(C)n2)c1`, for which, in test [1], the “area under cytotoxicity dose-response curve” value is less than 0. The “area under intracellular growth-inhibition dose-response curve” value in test [2] turned out to be 218.
The matching figures for `O=C(CCC1CCCCC1)NCc1cccs1`: 42.9 and 187.
In the case of `Cc1nc(N)nc(N)c1/C=C/C(C)(C)c1ccc(Cl)cc1.Cl`, in test [1], the “area under cytotoxicity dose-response curve” value amounted to 5.71. Besides, the “area under intracellular growth-inhibition dose-response curve” value in test [2] is 230.
For the compound `O=Cc1ccc2oc3nc4n(c(=O)c3c(=O)c2c1)CCCS4`, the “area under cytotoxicity dose-response curve” value in test [1] is 95.3. Moreover, the “area under intracellular growth-inhibition dose-response curve” value in test [2] worked out at 111.
For `Cc1cc(/C=N/NC(N)=S)c(C)n1-c1cccc(Cl)c1`, in that order: 34 and 190.
The matching figures for `Cc1ccccc1-n1c(SCC(=O)N/N=C/c2c(C)nn(-c3ccccc3)c2C)nc2ccccc2c1=O`: 13.8 and 203.
For `Cc1nn(Cc2ccccc2)c(Cl)c1C(=O)NCc1ccco1`, in that order: 16.8 and 104.
As to `CC1CCC(NC(=O)c2cc3c(s2)CCCC3)CC1` (configuration not stated), the “area under cytotoxicity dose-response curve” value in test [1] is less than 0. Further, in test [2], the “area under intracellular growth-inhibition dose-response curve” value was determined as 253.
For `CC1CCN(C(=O)COc2ccccc2F)CC1`, in that order: 50.5 and 214.
For `COc1ccc2nc(N3CCN(C(=O)c4ccc([N+](=O)[O-])o4)CC3)sc2c1`, in that order: 87 and 33.1.
For `C/C(=N\NC(=O)c1ccncc1)c1ccc(N2CCOCC2)cc1`, in that order: 16.1 and 255.
For `O=C(COC(=O)C1COc2ccccc2O1)Nc1cccc(F)c1` (configuration not stated), the “area under cytotoxicity dose-response curve” value in test [1] was less than 0. For the same compound, the “area under intracellular growth-inhibition dose-response curve” value in test [2] was 46.1.
For `Nc1c2c(nc3sc4c(c13)CCCCC4)CCCC2`, in that order: 14.6 and 171.
For `C/C(CC(C)(C)C1CCCCC1)=N\NC(N)=S`, in that order: 119 and 238.
On to `Cc1ccc2ccc3ccc(C)nc3c2n1`, for which, in test [1], the “area under cytotoxicity dose-response curve” value was 160. Besides, the “area under intracellular growth-inhibition dose-response curve” value in test [2] came out at 29.4.
For the compound `CCn1c(-c2cccs2)nc2ccccc21`, the “area under cytotoxicity dose-response curve” value in test [1] worked out at 69.6. The “area under intracellular growth-inhibition dose-response curve” value in test [2] stood at 194.
As to `COc1ccc(NC(=S)Nc2ccc(N)c([N+](=O)[O-])c2)cc1`, the “area under cytotoxicity dose-response curve” value in test [1] was 5.13. The “area under intracellular growth-inhibition dose-response curve” value in test [2] amounted to 167.
Take `CSc1ccc(NC(N)=S)cc1`: the “area under cytotoxicity dose-response curve” value in test [1] amounted to 35.6. In addition, the “area under intracellular growth-inhibition dose-response curve” value in test [2] came to 248.
With `[O-][n+]1onc2c3cc(-c4ccccc4)[nH]c3ccc21`, in test [1], the “area under cytotoxicity dose-response curve” value turned out to be 40.6. In test [2], the “area under intracellular growth-inhibition dose-response curve” value was determined as 74.3.
The matching figures for `O=C(/C=C/c1cn(CC(O)CN2CCCCCC2)c2ccccc12)c1cccs1` (configuration not stated): less than 0 and 96.5.
Regarding `Cc1nnc(SCC(=O)NNC(=O)COc2ccc(Br)cc2)n1C`, in test [1], the “area under cytotoxicity dose-response curve” value was determined as 1.25. In test [2], the “area under intracellular growth-inhibition dose-response curve” value amounted to 68.9.
The matching figures for `NS(=O)(=O)c1ccc(NC(=S)Nc2ccc(OCc3ccccc3)cc2)cc1`: less than 0 and 244.
As for `Cc1cc(C(=O)NC2CCCCCCC2)ccc1[N+](=O)[O-]`, the “area under cytotoxicity dose-response curve” value in test [1] was less than 0. For the same compound, the “area under intracellular growth-inhibition dose-response curve” value in test [2] came to 220.
Regarding `CC(=O)Nc1ccc(/C(C)=N/NC(=O)c2ccncc2)cc1`, the “area under cytotoxicity dose-response curve” value in test [1] was 0.755. Besides, the “area under intracellular growth-inhibition dose-response curve” value in test [2] came to 250.
For `O=C(Nc1ccc(Br)cc1)NC1CCCCCCC1`, in that order: 26.1 and 263.
For `NC(=S)N/N=C/c1ccc(-c2ccc(Cl)c(Cl)c2)o1`, in that order: 107 and 219.
As for `O=C(NCc1ccccc1)c1cc2ccccc2o1`, the “area under cytotoxicity dose-response curve” value in test [1] was found to be 71.7. In test [2], the “area under intracellular growth-inhibition dose-response curve” value came out at 197.
For `COc1ccc(NC(=O)/C(Cl)=C(/Cl)S(=O)Cc2ccccc2Cl)cn1` (configuration not stated), the “area under cytotoxicity dose-response curve” value in test [1] came out at 140. Further, the “area under intracellular growth-inhibition dose-response curve” value in test [2] is less than 0.
For `O=[N+]([O-])c1ccc(CN2CCN(c3ccc(F)cc3)CC2)o1`, in that order: less than 0 and 245.
The matching figures for `O=C(CCN1C(=O)S/C(=C\c2ccc(F)cc2)C1=O)Nc1ccc(C(=O)O)c(O)c1`: 11.3 and 120.
The matching figures for `CC(C)OC(=O)c1c2c(n3ccccc13)C(=O)c1ccccc1C2=O`: 36.2 and 209.
Take `CCC(=O)NC(=S)Nc1ccc(NC(=O)c2ccco2)cc1`: the “area under cytotoxicity dose-response curve” value in test [1] is 64.5. Besides, in test [2], the “area under intracellular growth-inhibition dose-response curve” value amounted to 233.
For `O=C(Nc1ccc([N+](=O)[O-])cc1Cl)c1cc(Cl)ccc1O`, in that order: 108 and 151.
Turning to `C/C(=N\NC(=O)c1ccncc1)c1ccc(N(C)C)cc1`, the “area under cytotoxicity dose-response curve” value in test [1] was found to be 58.7. Also, the “area under intracellular growth-inhibition dose-response curve” value in test [2] was 182.
The matching figures for `COc1ccccc1/C=C1\SC(=S)N(CCC(=O)Nc2ccc(C(=O)O)c(O)c2)C1=O`: less than 0 and 124.
For `CO[C@H]1C=CO[C@@]2(C)Oc3c(C)c(O)c4c(O)c(c(C=NN5CCN(C)CC5)c(O)c4c3C2=O)NC(=O)C(C)=CC=C[C@H](C)[C@H](O)[C@@H](C)[C@@H](O)[C@@H](C)[C@H](OC(C)=O)[C@@H]1C`, in that order: 92.8 and 275.
For `COc1ccc(CNc2ncc(-c3ccc(Br)cc3)n2C)cc1OC.O=C(O)C(=O)O`, in that order: 42.6 and 113.
Consider `O=C(Nc1ccc(N2CCN(C(=O)c3ccc(Cl)cc3)CC2)cc1)c1ccc([N+](=O)[O-])o1`, for which, in test [1], the “area under cytotoxicity dose-response curve” value stood at 34.5. Besides, in test [2], the “area under intracellular growth-inhibition dose-response curve” value is 246.
`Cc1ccc(NC(=O)NC2CCCCCCC2)cc1C`: the “area under cytotoxicity dose-response curve” value in test [1] came to 89. Further, the “area under intracellular growth-inhibition dose-response curve” value in test [2] is 230.
